Reference: patent US10966426B2, “Herbicidal compositions comprising phenylpyrimidines” (BASF SE, priority 2016, dated 2021)
“And” between values parts separate entries of the source, which are not always exact repeats. Identical values can stand only once.

Legend:
Assay type in all cases: in vivo
Apera spica-venti = test: greenhouse pre-emergence treatment, APESV
Summary of the method: (§1)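 Pre-emergence spray of compounds, alone or as combinations formulated as 10% emulsion concentrate in water, directly after sowing in loamy sand (~3.0% humus); pots hooded until rooting, kept at 10-25° C or 20-35° C per species for 2 to 4 weeks. Damage scored 0-100 (100 = no emergence/complete destruction); Colby expected value E=X+Y−(X·Y/100).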

Galium aparine = test: greenhouse post-emergence treatment, GALAP
Summary of the method: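 Visual herbicidal effect (0–100) recorded over a 2 to 4 week test period after foliar treatment at plant heights of 3 to 15 cm. Expected combination effects derived by the Colby formula from single-component effects X and Y.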

Brachiaria decumbens [1] = test: greenhouse pre-emergence treatment, BRADC
Summary of the method: as §1

Brachiaria decumbens [2] = test: greenhouse post-emergence treatment, BRADC
Summary of the method: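 Greenhouse; post-emergence spray at 3–15 cm; aqueous EC formulation; 2–4 weeks; 0–100 visual score.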

Lolium multiflorum = test: greenhouse post-emergence treatment, LOLMU
Summary of the method: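 Seeds sown per species in loamy sand substrate (about 3.0% humus); some raised separately and transplanted shortly before treatment. Treatments applied in water post-emergence, plants held at 10-25° C. or 20-35° C. by species, then scored after 2 to 4 weeks, where 100 means total kill and 0 no damage.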

Alopecurus myosuroides = test: greenhouse pre-emergence treatment, ALOMY; conditions: 20 DAT
Summary of the method: as §1

[3] = 20 DAT, BRADC, Ex. 26 solo 125 gai/ha
[4] = 20 DAT, Ex. 26 solo 62.5 gai/ha
[5] = BRADC, Ex. 26 solo 125 gai/ha, 20 DAT
[6] = Ex. 26 solo, 125 gai/ha, 20 DAT, BRADC

Measured: % activity

COC(=O)c1nc(C2CC2)ncc1-c1ccc(F)cc1Cl [Ex. 26]
35%: Brachiaria decumbens [2]; Ex. 26 solo 250 gai/ha, 20 DAT, BRADC (pyroxsulam table) | Lolium multiflorum; Ex. 26 solo 125 gai/ha, 20 DAT, LOLMU (pyridate table) | Lolium multiflorum; Ex. 26 solo 125 gai/ha, 20 DAT, LOLMU (pyroxsulam table)
30% and 40%: Brachiaria decumbens [2]; [5]
25%: Galium aparine; GALAP, 21 DAT, solo Ex. 26 250 gai/ha | Lolium multiflorum; Ex. 26 solo, 250 gai/ha, 20 DAT, LOLMU
50%: Brachiaria decumbens [1]; [3]
55% and 35%: Lolium multiflorum; LOLMU, Ex. 26 solo 125 gai/ha, 20 DAT
70%: Apera spica-venti; 20 DAT, solo Ex. 26 125 gai/ha (Table X68) | Apera spica-venti; Ex. 26 solo, 125 gai/ha, 20 DAT
85%: Alopecurus myosuroides; solo Ex. 26 62.5 gai/ha
0%: Galium aparine; 20 DAT, Ex. 26 solo 125 gai/ha | Galium aparine; 20 DAT, GALAP, Ex. 26 solo 62.5 gai/ha | Galium aparine; 20 DAT, GALAP, Ex. 26 solo 125 gai/ha | Galium aparine; 20 DAT, GALAP, Ex. 26 solo 250 gai/ha | Galium aparine; Ex. 26 solo 62.5 gai/ha, 20 DAT, GALAP (pyridate table) | Galium aparine; Ex. 26 solo 62.5 gai/ha, 20 DAT, GALAP (pyroxsulam table) | Galium aparine; Ex. 26 solo 125 gai/ha, 20 DAT, GALAP (pyridate table) | Galium aparine; Ex. 26 solo 125 gai/ha, 20 DAT, GALAP (pyroxsulam table) | Galium aparine; Ex. 26 solo 125 gai/ha, 21 DAT, GALAP | Galium aparine; Ex. 26 solo 250 gai/ha, 20 DAT, GALAP (pyridate table) | Galium aparine; Ex. 26 solo 250 gai/ha, 21 DAT, GALAP | Galium aparine; GALAP, Ex. 26 solo 125 gai/ha, 20 DAT | Galium aparine; GALAP, Ex. 26 solo 250 gai/ha, 20 DAT | Brachiaria decumbens [1]; 20 DAT, Ex. 26 solo 31.25 gai/ha | Brachiaria decumbens [1]; [4] | Brachiaria decumbens [1]; BRADC, Ex. 26 solo 31.25 gai/ha, 20 DAT | Brachiaria decumbens [1]; BRADC, Ex. 26 solo 62.5 gai/ha, 20 DAT | Brachiaria decumbens [1]; Ex. 26 solo 125 gai/ha, 20 DAT, BRADC | Brachiaria decumbens [1]; Ex. 26 solo, 31.25 gai/ha, 20 DAT, BRADC | Brachiaria decumbens [1]; Ex. 26 solo, 62.5 gai/ha, 20 DAT, BRADC | Brachiaria decumbens [1]; [6] | Brachiaria decumbens [2]; [4] | Brachiaria decumbens [2]; BRADC, 21 DAT, solo Ex. 26 62.5 gai/ha | Brachiaria decumbens [2]; Ex. 26 solo 62.5 gai/ha, 20 DAT, BRADC (pyroxsulam table) | Brachiaria decumbens [2]; Ex. 26 solo 62.5 gai/ha, 21 DAT, BRADC | Brachiaria decumbens [2]; Ex. 26 solo 125 gai/ha, 21 DAT, BRADC | Brachiaria decumbens [2]; [6] | Lolium multiflorum; [4] | Lolium multiflorum; Ex. 26 solo 62.5 gai/ha, 20 DAT, LOLMU (pyridate table) | Lolium multiflorum; Ex. 26 solo 62.5 gai/ha, 21 DAT, LOLMU | Lolium multiflorum; Ex. 26 solo, 125 gai/ha, 20 DAT, LOLMU | Lolium multiflorum; LOLMU, 21 DAT, solo Ex. 26 62.5 gai/ha
30% and 55%: Brachiaria decumbens [2]; [3]
60%: Brachiaria decumbens [2]; 20 DAT, BRADC, Ex. 26 solo 250 gai/ha | Lolium multiflorum; Ex. 26 solo 250 gai/ha, 20 DAT, LOLMU (pyridate table) | Alopecurus myosuroides; Ex. 26 solo 62.5 gai/ha | Alopecurus myosuroides; Ex. 26 solo, 31.25 gai/ha
30%: Galium aparine; Ex. 26 solo 250 gai/ha, 20 DAT, GALAP (pyroxsulam table) | Brachiaria decumbens [1]; 21 DAT, BRADC, Ex. 26 solo 250 gai/ha | Brachiaria decumbens [2]; Ex. 26 solo, 250 gai/ha, 20 DAT, BRADC | Lolium multiflorum; Ex. 26 solo, 250 gai/ha, 21 DAT, LOLMU | Lolium multiflorum; LOLMU, 21 DAT, solo Ex. 26 250 gai/ha
55%: Lolium multiflorum; 21 DAT, Ex. 26 solo 250 gai/ha | Lolium multiflorum; Ex. 26 solo 250 gai/ha, 20 DAT, LOLMU (pyroxsulam table)
10%: Brachiaria decumbens [1]; 21 DAT, BRADC, Ex. 26 solo 125 gai/ha | Brachiaria decumbens [2]; BRADC, 21 DAT, solo Ex. 26 125 gai/ha | Brachiaria decumbens [2]; Ex. 26 solo, 125 gai/ha, 21 DAT, BRADC | Lolium multiflorum; 21 DAT, Ex. 26 solo 125 gai/ha | Lolium multiflorum; Ex. 26 solo 62.5 gai/ha, 20 DAT, LOLMU (pyroxsulam table) | Lolium multiflorum; Ex. 26 solo 125 gai/ha, 21 DAT, LOLMU
65%: Apera spica-venti; Ex. 26 solo 125 gai/ha, 20 DAT | Brachiaria decumbens [1]; BRADC, Ex. 26 solo 250 gai/ha, 20 DAT | Lolium multiflorum; 20 DAT, LOLMU, Ex. 26 solo 250 gai/ha | Lolium multiflorum; LOLMU, Ex. 26 solo 250 gai/ha, 20 DAT
20% and 30%: Brachiaria decumbens [1]; [5]
40%: Brachiaria decumbens [2]; BRADC, 21 DAT, solo Ex. 26 250 gai/ha | Brachiaria decumbens [2]; Ex. 26 solo 125 gai/ha, 20 DAT, BRADC (pyridate table) | Brachiaria decumbens [2]; Ex. 26 solo, 250 gai/ha, 21 DAT, BRADC
15%: Lolium multiflorum; Ex. 26 solo, 125 gai/ha, 21 DAT, LOLMU | Lolium multiflorum; LOLMU, 21 DAT, solo Ex. 26 125 gai/ha
35% and 50% and 30%: Brachiaria decumbens [2]; 20 DAT, Ex. 26 solo 250 gai/ha
90%: Apera spica-venti; 20 DAT, Ex. 26 solo 125 gai/ha
75%: Apera spica-venti; 20 DAT, solo Ex. 26 125 gai/ha
20%: Brachiaria decumbens [1]; 20 DAT, Ex. 26 solo 125 gai/ha | Brachiaria decumbens [1]; Ex. 26 solo 62.5 gai/ha, 20 DAT, BRADC | Brachiaria decumbens [2]; Ex. 26 solo 62.5 gai/ha, 20 DAT, BRADC (pyridate table) | Brachiaria decumbens [2]; Ex. 26 solo 125 gai/ha, 20 DAT, BRADC (pyroxsulam table)
65% and 55%: Lolium multiflorum; 20 DAT, LOLMU, Ex. 26 solo 125 gai/ha
